Laboratory results from ChEMBL document CHEMBL2073758, “Agmatine is efficiently transported by non-neuronal monoamine transporters extraneuronal monoamine transporter (EMT) and organic cation transporter 2 (OCT2)” (J Pharmacol Exp Ther, 2003).

T1: Solute carrier family 22 member 2 (Homo sapiens, UniProt O15244)
T1 sequence (O15244 whole entry): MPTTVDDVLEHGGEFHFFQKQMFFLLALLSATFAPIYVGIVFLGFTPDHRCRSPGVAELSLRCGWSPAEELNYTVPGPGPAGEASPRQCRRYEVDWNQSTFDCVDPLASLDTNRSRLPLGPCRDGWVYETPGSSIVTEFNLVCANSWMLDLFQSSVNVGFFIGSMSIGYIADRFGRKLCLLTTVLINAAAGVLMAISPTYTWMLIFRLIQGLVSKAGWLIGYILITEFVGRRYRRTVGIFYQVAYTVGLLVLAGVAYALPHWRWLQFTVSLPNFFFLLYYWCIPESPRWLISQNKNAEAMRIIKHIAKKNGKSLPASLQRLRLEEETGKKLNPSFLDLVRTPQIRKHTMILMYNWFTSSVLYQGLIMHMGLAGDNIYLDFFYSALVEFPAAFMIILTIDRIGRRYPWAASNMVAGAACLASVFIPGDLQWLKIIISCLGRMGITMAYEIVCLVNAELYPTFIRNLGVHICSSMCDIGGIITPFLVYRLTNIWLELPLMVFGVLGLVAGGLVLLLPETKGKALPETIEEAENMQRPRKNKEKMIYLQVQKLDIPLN

T2: Solute carrier family 22 member 2 (Rattus norvegicus, UniProt Q9R0W2)
T2 sequence (Q9R0W2 whole entry): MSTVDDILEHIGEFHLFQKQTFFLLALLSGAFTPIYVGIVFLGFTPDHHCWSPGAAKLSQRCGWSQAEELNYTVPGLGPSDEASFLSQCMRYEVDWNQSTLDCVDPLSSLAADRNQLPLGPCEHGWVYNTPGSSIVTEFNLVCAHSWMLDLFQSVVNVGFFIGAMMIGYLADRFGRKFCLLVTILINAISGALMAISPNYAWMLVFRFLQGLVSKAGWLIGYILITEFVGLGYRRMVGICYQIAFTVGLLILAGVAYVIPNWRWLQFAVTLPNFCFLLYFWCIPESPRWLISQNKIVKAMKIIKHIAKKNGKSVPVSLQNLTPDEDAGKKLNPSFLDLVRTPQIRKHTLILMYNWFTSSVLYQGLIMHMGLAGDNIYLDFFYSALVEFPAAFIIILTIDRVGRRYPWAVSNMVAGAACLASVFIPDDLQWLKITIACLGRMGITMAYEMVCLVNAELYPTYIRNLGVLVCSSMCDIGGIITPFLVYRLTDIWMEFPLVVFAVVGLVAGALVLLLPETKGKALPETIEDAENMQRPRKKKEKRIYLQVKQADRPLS

T3: Solute carrier family 22 member 3 (Rattus norvegicus, UniProt O88446)
T3 sequence (O88446 whole entry): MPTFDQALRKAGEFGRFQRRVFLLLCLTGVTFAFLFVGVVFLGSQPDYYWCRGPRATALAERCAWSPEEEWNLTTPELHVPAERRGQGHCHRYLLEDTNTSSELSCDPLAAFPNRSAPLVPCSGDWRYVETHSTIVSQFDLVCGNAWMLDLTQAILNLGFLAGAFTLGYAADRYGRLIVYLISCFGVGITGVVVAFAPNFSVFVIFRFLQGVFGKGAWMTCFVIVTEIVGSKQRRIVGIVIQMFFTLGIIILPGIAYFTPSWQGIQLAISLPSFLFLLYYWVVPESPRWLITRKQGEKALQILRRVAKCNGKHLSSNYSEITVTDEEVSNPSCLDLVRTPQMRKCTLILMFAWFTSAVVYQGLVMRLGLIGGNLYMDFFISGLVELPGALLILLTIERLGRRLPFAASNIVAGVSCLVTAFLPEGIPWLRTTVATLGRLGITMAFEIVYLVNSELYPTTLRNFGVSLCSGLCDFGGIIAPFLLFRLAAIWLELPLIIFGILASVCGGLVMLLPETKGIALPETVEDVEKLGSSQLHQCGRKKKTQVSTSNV

T4: Solute carrier family 22 member 1 (Homo sapiens, UniProt O15245)
T4 sequence (O15245 whole entry): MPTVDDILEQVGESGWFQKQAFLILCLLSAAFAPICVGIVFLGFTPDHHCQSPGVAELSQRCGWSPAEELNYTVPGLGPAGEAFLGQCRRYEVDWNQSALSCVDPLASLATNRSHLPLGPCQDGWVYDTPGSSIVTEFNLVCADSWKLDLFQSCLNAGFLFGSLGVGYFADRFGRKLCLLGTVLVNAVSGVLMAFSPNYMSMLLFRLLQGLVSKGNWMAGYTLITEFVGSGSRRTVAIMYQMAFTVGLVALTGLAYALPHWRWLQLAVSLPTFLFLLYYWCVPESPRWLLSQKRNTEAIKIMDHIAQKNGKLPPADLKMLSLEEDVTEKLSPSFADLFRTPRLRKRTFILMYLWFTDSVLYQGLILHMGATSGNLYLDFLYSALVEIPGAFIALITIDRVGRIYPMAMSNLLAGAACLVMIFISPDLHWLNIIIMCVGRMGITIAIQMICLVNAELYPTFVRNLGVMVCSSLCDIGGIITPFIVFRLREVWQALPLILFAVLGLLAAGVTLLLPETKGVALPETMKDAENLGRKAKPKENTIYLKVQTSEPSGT

T5: Solute carrier family 22 member 1 (Rattus norvegicus, UniProt Q63089)
T5 sequence (Q63089 whole entry): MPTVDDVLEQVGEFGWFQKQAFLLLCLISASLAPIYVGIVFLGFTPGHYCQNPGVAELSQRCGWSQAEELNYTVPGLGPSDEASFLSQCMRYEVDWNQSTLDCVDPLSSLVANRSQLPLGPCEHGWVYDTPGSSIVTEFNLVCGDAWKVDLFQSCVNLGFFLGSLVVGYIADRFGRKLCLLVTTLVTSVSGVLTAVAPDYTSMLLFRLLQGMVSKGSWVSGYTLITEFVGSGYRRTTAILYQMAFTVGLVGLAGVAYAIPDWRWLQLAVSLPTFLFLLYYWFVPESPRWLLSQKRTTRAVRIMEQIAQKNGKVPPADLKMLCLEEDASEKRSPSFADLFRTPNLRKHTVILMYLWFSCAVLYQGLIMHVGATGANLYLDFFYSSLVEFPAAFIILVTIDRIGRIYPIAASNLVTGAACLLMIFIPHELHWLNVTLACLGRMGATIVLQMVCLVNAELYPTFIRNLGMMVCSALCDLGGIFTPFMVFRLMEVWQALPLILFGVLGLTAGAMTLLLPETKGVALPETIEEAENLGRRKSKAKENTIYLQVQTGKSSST

B1: Solute carrier family 22 member 2 (Rattus norvegicus) (protein)
chain: T2 sequence (Q9R0W2 whole entry)
B2: Solute carrier family 22 member 3 (Rattus norvegicus) (protein)
chain: T3 sequence (O88446 whole entry)
B3: Solute carrier family 22 member 3 (Homo sapiens) (protein)
chain: MPSFDEALQRVGEFGRFQRRVFLLLCLTGVTFAFLFVGVVFLGTQPDHYWCRGPSAAALAERCGWSPEEEWNRTAPASRGPEPPERRGRCQRYLLEAANDSASATSALSCADPLAAFPNRSAPLVPCRGGWRYAQAHSTIVSEFDLVCVNAWMLDLTQAILNLGFLTGAFTLGYAADRYGRIVIYLLSCLGVGVTGVVVAFAPNFPVFVIFRFLQGVFGKGTWMTCYVIVTEIVGSKQRRIVGIVIQMFFTLGIIILPGIAYFIPNWQGIQLAITLPSFLFLLYYWVVPESPRWLITRKKGDKALQILRRIAKCNGKYLSSNYSEITVTDEEVSNPSFLDLVRTPQMRKCTLILMFAWFTSAVVYQGLVMRLGIIGGNLYIDFFISGVVELPGALLILLTIERLGRRLPFAASNIVAGVACLVTAFLPEGIAWLRTTVATLGRLGITMAFEIVYLVNSELYPTTLRNFGVSLCSGLCDFGGIIAPFLLFRLAAVWLELPLIIFGILASICGGLVMLLPETKGIALPETVDDVEKLGSPHSCKCGRNKKTPVSRSHL
B4: Solute carrier family 22 member 2 (Homo sapiens) (protein)
chain: T1 sequence (O15244 whole entry)

Assays:
[1] = target: T1, Solute carrier family 22 member 2; assay: (§1) TP_TRANSPORTER: uptake in OCT2-expressing 293 cells; format: functional, cell-based; details: hek293
[2] = target: T2, Solute carrier family 22 member 2; assay: as §1; format: functional, cell-based; details: human, hek293
[3] = target: T3, Solute carrier family 22 member 3; assay: (§2) TP_TRANSPORTER: uptake in OCT3-expressing 293 cells; format: functional, cell-based; details: human, hek293
[4] = target: T4, Solute carrier family 22 member 1; assay: (§3) TP_TRANSPORTER: uptake in OCT1-expressing 293 cells; format: functional, cell-based; details: hek293
[5] = target: T5, Solute carrier family 22 member 1; assay: as §3; format: functional, cell-based; details: human, hek293
[6] = target: T4, Solute carrier family 22 member 1; assay: (§4) TP_TRANSPORTER: inhibition of uptake of 0.1 uM MPP+ in OCT1-expressing 293 cells; format: functional, cell-based, HEK293
[7] = target: T5, Solute carrier family 22 member 1; assay: as §4; format: functional, cell-based, HEK293
[8] = substrate: N=C(N)NCCCCN; assay: as §1; format: functional, cell-based, HEK293
[9] = substrate: N=C(N)NCCCCN; assay: as §2; format: functional, cell-based, HEK293

Molecule	Activity [4]	Activity [5]	Km [8] [µM]	Km [9] [µM]	other results
C[n+]1ccc(-c2ccccc2)cc1	32 µM	substrate []	–	–	Activity [1]: 7.8 µM; Activity [2]: substrate []; Activity [3]: substrate []
N=C(N)NCCCCN [AGMATINE]	substrate []	substrate []	–	–	Ki [6]: 24 mM; Ki [7]: 8.6 mM
B1	–	–	950	–	–
B2	–	–	–	900	–
B3	–	–	–	2500	–
B4	–	–	1400	–	–
